Results on 2 compounds are retold here after patent US11612661B2 (priority 2019, dated 2023).

The test system of data set [1] is chronic constriction injury (CCI) model. Set-up: species or system Sprague Dawley rats. The following applies: rat, in vivo.
The target in data set [2] is human α9α10 nAChR (Homo sapiens, UniProt Q9GZZ6+Q9UGM1). Briefly: cell-based. The class given is cell-based.
The target in data set [3] is rat α9α10 nAChR (Rattus norvegicus, UniProt P43144+Q9JLB5). Briefly: cell-based. In kind it is cell-based. Conditions: α9α10 nAChR IC50 (nM) Rat.
Sequence of rat α9α10 nAChR (P43144 26-479 limits assumed): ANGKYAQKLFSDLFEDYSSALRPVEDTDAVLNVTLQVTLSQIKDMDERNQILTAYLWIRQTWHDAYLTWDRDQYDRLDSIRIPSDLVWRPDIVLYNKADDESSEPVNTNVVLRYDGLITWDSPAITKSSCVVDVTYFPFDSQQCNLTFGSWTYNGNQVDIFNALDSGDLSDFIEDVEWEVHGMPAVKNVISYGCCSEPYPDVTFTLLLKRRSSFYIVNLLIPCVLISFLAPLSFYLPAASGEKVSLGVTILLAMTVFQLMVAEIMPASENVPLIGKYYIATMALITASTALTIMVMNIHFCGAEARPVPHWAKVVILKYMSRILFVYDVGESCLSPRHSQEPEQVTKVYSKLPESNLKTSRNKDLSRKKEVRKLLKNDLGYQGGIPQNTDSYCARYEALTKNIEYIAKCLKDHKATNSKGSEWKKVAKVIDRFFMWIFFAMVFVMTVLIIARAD
Sequence of rat α9α10 nAChR (Q9JLB5 25-447 limits assumed): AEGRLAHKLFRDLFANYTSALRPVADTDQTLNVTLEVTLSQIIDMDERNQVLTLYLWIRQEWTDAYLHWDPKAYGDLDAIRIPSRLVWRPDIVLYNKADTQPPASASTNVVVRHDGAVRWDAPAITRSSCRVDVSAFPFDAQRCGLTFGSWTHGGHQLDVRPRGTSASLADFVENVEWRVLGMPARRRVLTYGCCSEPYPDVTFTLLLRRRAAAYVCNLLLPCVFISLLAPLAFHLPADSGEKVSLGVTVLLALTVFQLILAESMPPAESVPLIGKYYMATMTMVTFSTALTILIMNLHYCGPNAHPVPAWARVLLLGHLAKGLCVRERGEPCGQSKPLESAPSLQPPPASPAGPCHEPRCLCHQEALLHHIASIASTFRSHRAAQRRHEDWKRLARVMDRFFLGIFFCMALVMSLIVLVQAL
The subject of data set [4] is 88 receptors, transporters, enzymes and kinases. Conditions: 10 μM.
In data set [5] the target is α7 nAChR (Homo sapiens, UniProt P36544). Conditions: 10 μM; read-out: Partial inhibition of the α7 nAChR.
Sequence of α7 nAChR (P36544 23-502 limits assumed): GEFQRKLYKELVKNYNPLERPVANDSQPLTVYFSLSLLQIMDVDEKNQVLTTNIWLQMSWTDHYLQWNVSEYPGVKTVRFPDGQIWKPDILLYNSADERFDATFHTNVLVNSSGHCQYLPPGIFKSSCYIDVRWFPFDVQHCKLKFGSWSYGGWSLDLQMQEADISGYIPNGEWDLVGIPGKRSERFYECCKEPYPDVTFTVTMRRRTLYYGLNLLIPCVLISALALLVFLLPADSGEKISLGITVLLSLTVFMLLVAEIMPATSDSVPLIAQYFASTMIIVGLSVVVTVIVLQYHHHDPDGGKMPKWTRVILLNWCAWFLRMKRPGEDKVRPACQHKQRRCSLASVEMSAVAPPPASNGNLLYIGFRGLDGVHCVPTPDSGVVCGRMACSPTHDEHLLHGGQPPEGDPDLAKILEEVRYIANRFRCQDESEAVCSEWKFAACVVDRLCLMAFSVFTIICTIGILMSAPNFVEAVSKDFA

Bridge positions count the residues as written; N and C are the ends. Square brackets hold non-standard residues; d marks the D form. Triazole bridges read from a SMILES are 1,4-linked. Peptide text beside a SMILES is read from it. * marks the point of attachment. Tyr(3-I) = N[C@@H](Cc1ccc(O)c(I)c1)C(=O)O; Orn(N3) = [N-]=[N+]=NCCC[C@H](N)C(=O)O; X1 = O=C(O)C[C@@H](N*)c1ccc(O)cc1; Cit = NC(=O)NCCC[C@H](N)C(=O)O; Pra = C#CC[C@H](N)C(=O)O

Sequence of human α9α10 nAChR (Q9UGM1 26-479 limits assumed): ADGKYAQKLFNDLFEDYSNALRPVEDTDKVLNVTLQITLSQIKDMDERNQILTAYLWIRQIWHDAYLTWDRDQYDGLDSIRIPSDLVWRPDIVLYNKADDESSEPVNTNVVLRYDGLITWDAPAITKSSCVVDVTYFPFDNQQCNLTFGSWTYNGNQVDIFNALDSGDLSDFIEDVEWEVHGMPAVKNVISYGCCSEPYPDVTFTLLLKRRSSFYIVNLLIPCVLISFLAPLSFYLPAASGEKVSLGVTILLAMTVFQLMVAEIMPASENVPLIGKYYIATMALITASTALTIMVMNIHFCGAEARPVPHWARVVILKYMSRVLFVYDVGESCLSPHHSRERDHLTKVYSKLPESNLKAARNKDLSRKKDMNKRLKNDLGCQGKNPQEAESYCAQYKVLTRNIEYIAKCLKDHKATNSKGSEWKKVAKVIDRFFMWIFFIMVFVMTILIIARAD
Sequence of human α9α10 nAChR (Q9GZZ6 25-450 limits assumed): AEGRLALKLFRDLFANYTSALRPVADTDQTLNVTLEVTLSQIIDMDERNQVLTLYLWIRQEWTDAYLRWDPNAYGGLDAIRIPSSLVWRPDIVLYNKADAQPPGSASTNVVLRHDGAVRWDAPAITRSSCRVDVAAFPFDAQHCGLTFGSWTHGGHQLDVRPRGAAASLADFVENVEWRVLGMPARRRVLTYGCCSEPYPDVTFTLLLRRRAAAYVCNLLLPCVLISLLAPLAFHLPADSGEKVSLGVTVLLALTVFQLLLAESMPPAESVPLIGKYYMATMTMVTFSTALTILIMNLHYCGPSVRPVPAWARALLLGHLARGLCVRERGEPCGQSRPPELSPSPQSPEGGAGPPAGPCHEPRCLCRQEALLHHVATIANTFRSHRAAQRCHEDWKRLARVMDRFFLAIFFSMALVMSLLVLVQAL

As to `C[C@@H](O)[C@@H]1NC(=O)[C@@H]2Cc3cn(nn3)CCC[C@@H](C(=O)N[C@@H](Cc3ccc(O)cc3)C(N)=O)NC(=O)[C@H](CCC(N)=O)NC(=O)[C@H](Cc3ccc(O)c(I)c3)NC(=O)[C@H](CCCNC(N)=O)NC(=O)[C@H](CSSC[C@H](NC(=O)CN)C(=O)N2)NC(=O)[C@H](CCCNC(=N)N)NC(=O)[C@@H]2CCCN2C(=O)[C@H](CC(=O)O)NC1=O` [Ib′, L-tyrosinamide, glycyl-L-cysteinyl-L-alanyl-L-threonyl-L-α-aspartyl-L-prolyl-L-arginyl-L-cysteinyl-N5-(aminocarbonyl)-L-ornithyl-L-3-iodotyrosyl-L-glutaminyl-L-norvalyl-cyclic (2→8)-disulfide-cyclic 3^3,12^5-(1H-1,2,3-triazole-4,1-diyl)] (H-GC[Pra]TDPRC[Cit][Tyr(3-I)]Q[Orn(N3)]Y-NH2; disulfide 2-8; triazole 3-12), the “Paw withdrawal thresholds relative to vehicle-treated control animals” value in data set [1] is on record as “statistically significant improvement in paw withdrawal thresholds”. Besides, the IC50 – broadly, the midpoint of a concentration-inhibition curve – in data set [2] was found to be 48 ± 9 nM; in data set [3], 2.3 ± 0.5 nM. Besides, the “Off-target effects in panel of 88 receptors, transporters, enzymes and kinases” value in data set [4] is “no off-target effects”. Further, in data set [5], the inhibition (in general, the share of the control response that was lost under treatment) at 10 µM stood at 56%.
As to `C[C@@H](O)[C@@H]1NC(=O)[C@@H]2Cc3cn(nn3)CCC[C@@H](C(=O)N[C@H](CC(=O)O)c3ccc(O)cc3)NC(=O)[C@H](CCC(N)=O)NC(=O)[C@H](Cc3c[nH]c4ccccc34)NC(=O)[C@H](CCCNC(N)=O)NC(=O)[C@H](CSSC[C@H](NC(=O)CN)C(=O)N2)NC(=O)[C@H](CCCNC(=N)N)NC(=O)[C@@H]2CCCN2C(=O)[C@H](CC(=O)O)NC1=O` [Iu, (R)-3-(amino)-3-(4-hydroxyphenyl)propionic acid, glycyl-L-cysteinyl-L-alanyl-L-threonyl-L-α-aspartyl-L-prolyl-L-arginyl-L-cysteinyl-N5-(aminocarbonyl)-L-ornithyl-L-tryptophyl-L-glutaminyl-L-norvalyl-cyclic (2→8)-disulfide-cyclic 3^3,12^5-(1H-1,2,3-triazole-4,1-diyl)] (H-GC[Pra]TDPRC[Cit]WQ[Orn(N3)]-X1; disulfide 2-8; triazole 3-12), the values for the IC50 in data set [2] and in data set [3] were roughly 100 nM and less than 30 nM, respectively.
